Results: US12331019B2, “Modified amino acid derivatives for the treatment of neurological diseases and selected psychiatric disorders” (Uniwersytet Jagiellonski, priority 2019, dated 2025)

How the values were obtained:
[1] = system: Swiss albino mice (CD-1); conditions: i.p., CD-1 mice, 30 min; racemates, disclosed in publications; cited from earlier work
[2] = system: Swiss albino mice (CD-1); conditions: i.p., CD-1 mice, 30 min; racemates, disclosed in publications; cited from earlier work; remark: listed apart in the source
[3] = target: T1, CYP2D6 (Homo sapiens, UniProt P10635); test: CYP2D6 P450-Glo luminescence test; assay type: in vitro ADME; conditions: 10 μM
T1 construct: purchased Promega (Madison, WI, USA)
Experimental: (§1) The studies were conducted using commercial luminescence tests CYP3A4 P450-Glo™, CYP2D6 P450-Glo™ and CYP2C9 P450-Glo™ from Promega (Madison, WI, USA).
(§2) The studies were conducted using commercial luminescence tests CYP3A4 P450-Glo™, CYP2D6 P450-Glo™ and CYP2C9 P450-Glo™ from Promega (Madison, WI, USA). The CYP isoforms selected for study are responsible for the metabolism of approximately 60-70% of the drugs available and their stimulation or inhibition determines the majority of metabolic drug interactions.

[4] = system: HEK-293 cell line; test: cytotoxic activity, MTS test; conditions: 72 hours incubation, concentration range 1-100 μM
[5] = system: Sprague-Dawley rats; test: MES test in rats, ETSP; assay type: in vivo; conditions: Rattus norvegicus, ip, 0.5 h, i.p., tested 30 min after administration, 95% confidence limits in brackets
Experimental: (§3) The study was conducted on male Swiss albino mice (CD-1) weighing 18-26 g. All procedures were carried out in accordance with applicable Polish and international guidelines on the ethics of animal testing, after obtaining appropriate institutional approval. […] These studies were carried out on individuals of male C57 black mice (Charles River) and individuals of male Sprague-Dawley rats. All tests were carried out based on the procedures described in the specialist literature.
(§4) Screening was performed on groups of 4-8 mice or 4-8 rats. The median effective dose (ED50) in a given test was estimated based on the results obtained in 3-4 groups of animals consisting of at least 6 individuals.
(§5) To perform a statistical evaluation of the results, one-way analysis of variance (ANOVA) followed by Dunnett's post hoc test (multiple comparison test) were used. The values were considered statistically significant if p<0.05.

[6] = system: HepG2 cell line; test: hepatotoxicity, MTS test; conditions: 72 hours incubation, concentration range 1-100 μM
[7] = system: mice; test: formalin test; assay type: in vivo, mouse; conditions: vs vehicle control
Experimental: as §3, with “literature. […] The study group consisted of 8-10 animals. […] To perform a statistical evaluation of the results, one-way analysis of variance (ANOVA) followed by Dunnett's post hoc test (multiple comparison test) were used. The values were considered statistically significant if p<0.05.” for “literature.”

[8] = system: human liver microsomes; test: metabolic stability in human liver microsomes; assay type: in vitro ADME; conditions: 120 minutes incubation, NADPH cofactor
Experimental: The metabolic stability study was performed using human liver microsomes purchased from Sigma-Aldrich (St. Louis, MO, USA).

[9] = system: black C57 mice (Charles River); test: 6 Hz (44 mA) test, ETSP; assay type: in vivo; conditions: Mus musculus, ip, 1 h, i.p., tested 60 min after administration
Experimental: as §3, §4, §5

[10] = in vivo; conditions: male, C57 black, mouse, ip
Experimental: as §3
(§6) These studies were also carried out in rats according to the methodology described by ETSP. The toxic dose (TD50) in the rotarod test was estimated based on the results obtained in 3-4 groups of animals consisting of at least 6 individuals.
as §5

[11] = system: black C57 mice (Charles River); test: corneal kindled seizure model, ETSP; assay type: in vivo; conditions: Mus musculus, ip, 1 h, i.p., tested 60 min after administration
Experimental: as §3, §4, §5

[12] = system: mice; test: oxaliplatin-induced neuropathic pain model, von Frey test; assay type: in vivo, mouse
Experimental: as §3, with “literature. […] The study group consisted of 8-10 animals. […] To perform a statistical evaluation of the results, one-way analysis of variance (ANOVA) followed by Dunnett's post hoc test (multiple comparison test) were used. The values were considered statistically significant if p<0.05.” for “literature.”

[13] = target: CYP2C9 (Homo sapiens, UniProt P11712); conditions: 10 μM
Experimental: as §1, §2

[14] = system: mice; test: forced swim test (Porsolt test); assay type: in vivo, mouse; conditions: 30, 45 and 60 mg/kg i.p.; vs vehicle control
Experimental: as §3, with “literature. […] The study group consisted of 8-10 animals. […] To perform a statistical evaluation of the results, one-way analysis of variance (ANOVA) followed by Dunnett's post hoc test (multiple comparison test) were used. The values were considered statistically significant if p<0.05.” for “literature.”

[15] = system: Sprague-Dawley rats; test: lamotrigine resistant amygdala kindled seizure model; assay type: in vivo, rat; conditions: 70 mg/kg i.p., 30 min, 5 rats tested
Experimental: as §3, §4

[16] = system: mice; test: streptozotocin-induced model of painful diabetic neuropathy, von Frey test; assay type: in vivo, mouse; conditions: 3 weeks after streptozotocin
Experimental: as §3, with “literature. […] The study group consisted of 8-10 animals. […] To perform a statistical evaluation of the results, one-way analysis of variance (ANOVA) followed by Dunnett's post hoc test (multiple comparison test) were used. The values were considered statistically significant if p<0.05.” for “literature.”

[17] = target: T2, CYP3A4 (Homo sapiens, UniProt P08684); test: CYP3A4 P450-Glo luminescence test; assay type: in vitro ADME; conditions: 10 μM
T2 construct: purchased Promega (Madison, WI, USA)
Experimental: as §1, §2

[18] = system: mice; test: neuroprotection in pilocarpine-induced status epilepticus (Fluoro-Jade B); conditions: PILO 300 mg/kg i.p.; dose of compound determined in the 6 Hz (32 mA) test; five mice shown (B-F)
[19] = system: mice; test: spontaneous locomotor activity test; assay type: in vivo, mouse
Experimental: The assessment of the influence of the tested compounds on the spontaneous locomotor activity of animals (assessment of the sedative or activating effect) was carried out in accordance with the methodology described in the scientific literature (Mogilski et al. Inflamm. Res. 2017, 66, 79-95). The study group consisted of 10 animals.

[20] = system: HaCaT cells; test: cytotoxic activity, MTT assay; assay type: cell-based; conditions: Homo sapiens, 72 hours incubation, mean ± SD
Source text: MTT assay. […] The IC50 value was estimated using CompuSyn version 1.0.

[21] = system: mice; test: four plates test (Aron test); assay type: in vivo, mouse; conditions: vs vehicle control
Experimental: as §3, with “literature. […] The study group consisted of 8-10 animals. […] To perform a statistical evaluation of the results, one-way analysis of variance (ANOVA) followed by Dunnett's post hoc test (multiple comparison test) were used. The values were considered statistically significant if p<0.05.” for “literature.”

[22] = system: neurons derived from human neuroblastoma SH-SY5Y cells; test: neurotrophic activity on human neurons, MTT test; conditions: 48 hours; for viability of human neurons under standard conditions: 0.1 to 100 μg/ml; for concentrations from which the compound acted trophically (eliminating the effect of lack of B27 supplement): trophic stress (B27 removed)
[23] = rotarod test (motor coordination); conditions: male, Swiss albino (CD-1), mouse, in vivo, ip
Experimental: as §3, §6, §5

[24] = system: Swiss albino mice (CD-1); test: 6 Hz (44 mA) psychomotor seizure test; assay type: in vivo; conditions: Mus musculus, ip, 0.5 h; i.p., CD-1 mice, tested 30 min after administration
[25] = system: patients; conditions: monotherapy; cited from earlier work

SMILES: CC(C(=O)NCc1ccccc1)N1C(=O)CCC1=O (racemic) [(RS)-1, (2RS)—N-benzyl-2-(2,5-dioxopyrrolidin-1-yl)propenamide]
- ED50 6 Hz (44 mA) [1]: 75.41 mg/kg

SMILES: CC(C(=O)NCc1ccccc1F)N1C(=O)CCC1=O (racemic) [(RS)-2, (2RS)-2-(2,5-dioxopyrrolidin-1-yl)-N-(2-fluorobenzyl)propanamide]
- TD50 Rotarod test [2]: 300.9 mg/kg

SMILES: C[C@H](C(=O)NCc1ccccc1)N1C(=O)CCC1=O [Compound 1, (2R)—N-benzyl-2-(2,5-dioxopyrrolidin-1-yl)propanamide]
- effect on CYP2D6 activity [3]: no effect
- effect on cell viability [4]: did not show a statistically significant effect
- ED50 [5]: 34.9 mg/kg
- effect on cell viability [6]: did not show a statistically significant effect
- nociceptive response time, second phase (tonic inflammatory pain) ([7]; i.p., 30, 60 and 90 mg/kg): statistically significantly shortened the time of nociceptive response
- nociceptive response time, first phase (acute pain) ([7]; i.p., all doses, statistically significant at 60 and 90 mg/kg): reduced the nociceptive response time
- metabolites on UPLC chromatogram of reaction mixture [8]: no metabolites appeared
- ED50 [9]: 69.9 mg/kg
- TD50 at 60 min [10]: > 150 mg/kg
- ED50 [11]: 38.1 mg/kg
- pain threshold (mechanical stimulus) ([12]; 30 mg/kg i.p.): increased the pain threshold only in the early phase
- pain threshold (mechanical stimulus) ([12]; 60 mg/kg and 90 mg/kg i.p., early (3 h) and late (7 days) phase, vs measurement before compound): led to an increase in pain threshold at a dose-dependent manner
- effect on CYP2C9 activity [13]: small, statistically significant (p<0.05) inhibition
- immobility time [14]: statistically significantly shortened the immobility time
- Number of protected rats [15]: Number of protected rats: 3
- protection [15]: (protection—60%)
- pain threshold (mechanical stimulus) ([16]; 90 mg/kg i.p.): increased the pain threshold to the values observed before the induction of streptozotocin diabetes
- pain threshold (mechanical stimulus) ([16]; 30, 60 and 90 mg/kg i.p., vs measurement before compound): led to an increase in the pain threshold in a statistically significant and dose-dependent manner
- effect on CYP3A4 activity [17]: no effect
- neuroprotective effect after PILO-induced SE (neurodegenerative changes) [18]: a protective effect was obtained for four mice
- number of light beams interruptions during 30 minutes (spontaneous locomotor activity) ([19]; 30, 60 and 90 mg/kg i.p.): statistically significantly increased the number of light beams interruptions
- IC50 [20]: 239.8 ± 0.6 µM
- number of electrically punished plate crossings ([21]; 30 mg/kg i.p.): did not result in a statistically significant difference
- number of electrically punished plate crossings ([21]; 60 mg/kg and 90 mg/kg i.p.): statistically significantly increased the number of electrically punished plate crossings
- viability of human neurons under standard conditions [22]: did not affect the viability
- concentrations from which the compound acted trophically (eliminating the effect of lack of B27 supplement) [22]: ≥ 1 µg/mL

SMILES: C[C@H](C(=O)NCc1ccccc1F)N1C(=O)CCC1=O [Compound 2, (2R)-2-(2,5-dioxopyrrolidin-1-yl)-N-(2-fluorobenzyl)propanamide]
- TD50 at 30 min [23]: 299 mg/kg
- ED50 [24]: 37.2 mg/kg
- spontaneous locomotor activity ([19]; 90 mg/kg i.p.): statistically significant increase in spontaneous locomotor activity
- viability of human neurons under standard conditions [22]: did not affect the viability
- concentrations from which the compound acted trophically (eliminating the effect of lack of B27 supplement) [22]: ≥ 0.1 µg/mL

SMILES: COc1cccc2c1C(=O)c1c(O)c3c(c(O)c1C2=O)C[C@@](O)(C(=O)CO)C[C@@H]3O[C@H]1C[C@H](N)[C@H](O)[C@H](C)O1 [Doxorubicin, reference compound]
- IC50 [20]: 0.23 ± 0.03 µM

SMILES: NCC1(CC(=O)O)CCCCC1 [gabapentin]
- sedative effect, share of patients [25]: approx. 9 % of patients

SMILES: Nc1nnc(-c2cccc(Cl)c2Cl)c(N)n1 [lamotrigine]
- sedative effect, share of patients [25]: approx. 10 % of patients

SMILES: CC[C@@H](C(N)=O)N1CCCC1=O [levetiracetam]
- sedative effect, share of patients [25]: approx. 20 % of patients

SMILES: CCC1(c2ccccc2)C(=O)NC(=O)NC1=O [phenobarbital]
- sedative effect, share of patients [25]: approx. 39 % of patients

SMILES: O=C1NC(=O)C(c2ccccc2)(c2ccccc2)N1 [phenytoin]
- sedative effect, share of patients [25]: approx. 32 % of patients
